Results on 26 compounds are retold here after the supplement of paper PMC12613149.

Data set [1] in a line: collision cross section (TIMS, N2 drift gas) of the primary ion; higher = larger gas-phase ion size. On the procedure: (§1)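 Reference mixture of environmental contaminants analysed by RP-LC (BEH C18, 50 °C; ESI+ with water/MeOH plus formic acid and ammonium formate, ESI- with ammonium bicarbonate) coupled to a timsTOF Pro 2 with trapped ion mobility in nitrogen (ramp/accumulation 100 ms). CCS was calibrated with Agilent tune mix (CCS compendium) and averaged over five injections at 0.5-500 ng/mL. The table reports the lowest-CCS (putative monomer) peak; retention times are on the same gradient.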

Data set [2] is described as follows: reversed-phase LC retention time (C18, 15 min MeOH gradient); higher = more hydrophobic / later elution. How it is done:
as §1

Setting [3] is: ionization mode: ESI+, ion species: [M+H]+.
The mark [4] stands for this setting: ionization mode: ESI-, ion species: [M-H]-.
Setting [5] is: ionization mode: ESI+, ion species: [M]+.

The structures appear in SMILES notation.

`CC(C)(C)CC(C)(C)c1ccc(Nc2ccc(C(C)(C)CC(C)(C)C)cc2)cc1` [N,N-Bis(4-tert-octylphenyl)amine] had a collision cross section in data set [1] (setting [3]) of 220.04 Å². Besides, in data set [2] (setting [3]), the “reversed-phase LC retention time” value worked out at 20.2 min.
Regarding `N[C@@H](Cc1cc(I)c(Oc2cc(I)c(O)c(I)c2)c(I)c1)C(=O)O` [L-Thyroxine], the collision cross section is on record as 217.22 Å² in data set [1] (setting [3]) and 208.7 Å² in data set [1] (setting [4]). Also, the “reversed-phase LC retention time” value in data set [2] (setting [3]) came out at 14 min; in data set [2] (setting [4]), 13.4 min.
For `CC(C)N(C(=O)SCC(Cl)=C(Cl)Cl)C(C)C` [Triallate], in data set [1] (setting [3]), the collision cross section was 162.33 Å². Also, the “reversed-phase LC retention time” value in data set [2] (setting [3]) worked out at 17.2 min.
Compound `CCNS(=O)(=O)c1ccccc1C` [N-Ethyl-o-toluenesulfonamide] registered a collision cross section in data set [1] (setting [4]) of 143.19 Å². Further, in data set [2] (setting [4]), the “reversed-phase LC retention time” value came to 11.5 min.
In data set [1] (setting [3]), `CCCCCCCCCCCC[N+](C)(C)[O-]` [N,N-Dimethyldodecylamine N-oxide] returned a collision cross section of 175.77 Å². The “reversed-phase LC retention time” value in data set [2] (setting [3]) came out at 15.6 min.
In the case of `CCCOC(=O)c1ccc(O)cc1` [Propylparaben], the collision cross section in data set [1] (setting [4]) came out at 140.81 Å². Moreover, the “reversed-phase LC retention time” value in data set [2] (setting [4]) was 12.9 min.
On to `N#Cc1c(Cl)c(Cl)c(S(=O)(=O)O)c(C(N)=O)c1Cl` [2-Amido-3,5,6-trichloro-4-cyanobenzenesulfonic acid], for which, in data set [1] (setting [4]), the collision cross section is given as 154.35 Å². The “reversed-phase LC retention time” value in data set [2] (setting [4]) was determined as 7.02 min.
`CN(C1CCCCC1)C1CCCCC1` [N-Methyl-dicyclohexylamine] registered a collision cross section in data set [1] (setting [3]) of 148.45 Å². For the same compound, in data set [2] (setting [3]), the “reversed-phase LC retention time” value stood at 9.45 min.
Turning to `CCN(CC)C(=O)c1cccc(C(=O)O)c1` [DEET carboxylic acid], the collision cross section is given as 151.03 Å² in data set [1] (setting [3]) and 157.09 Å² in data set [1] (setting [4]). The “reversed-phase LC retention time” value in data set [2] (setting [3]) worked out at 10.8 min; in data set [2] (setting [4]), 8.24 min.
`Nc1ccc(-c2ccc(N)cc2)cc1` [Benzidine]: the collision cross section in data set [1] (setting [3]) worked out at 155.46 Å². Moreover, the “reversed-phase LC retention time” value in data set [2] (setting [3]) worked out at 3.98 min.
On to `Oc1ccccc1-c1ccccc1O` [2,2'-Dihydroxybiphenyl], for which the collision cross section in data set [1] (setting [4]) came to 143.93 Å². Moreover, the “reversed-phase LC retention time” value in data set [2] (setting [4]) was 15.6 min.
In the case of `CC(C)Oc1cccc(NC(=O)c2ccccc2C(F)(F)F)c1` [Flutolanil], the collision cross section was 173.43 Å² in data set [1] (setting [3]) and 176.16 Å² in data set [1] (setting [4]). In addition, the entries for the “reversed-phase LC retention time” value in data set [2] (setting [3]) and in data set [2] (setting [4]) were 14.3 min and 14.7 min, respectively.
On the same counts, the results for `CC(=O)[C@@]1(O)CC[C@H]2[C@@H]3C=C(Cl)C4=CC(=O)[C@@H]5C[C@@H]5[C@]4(C)[C@H]3CC[C@@]21C` [Cyproterone] are 190.49 Å², 190.87 Å², 14.6 min and 14.9 min.
In turn, `CCCCCCCCCCCCCCCC[n+]1ccccc1` [Hexadecylpyridinium] registered a collision cross section in data set [1] (setting [5]) of 197.5 Å². For the same compound, the “reversed-phase LC retention time” value in data set [2] (setting [5]) turned out to be 17.5 min.
In turn, `CCOP(=O)(OCC)OC(=CCl)c1ccc(Cl)cc1Cl` [Chlorfenvinphos] returned a collision cross section in data set [1] (setting [3]) of 169.3 Å². Also, the “reversed-phase LC retention time” value in data set [2] (setting [3]) was 15.7 min.
`CC(Oc1ccc(Oc2cnc3cc(Cl)ccc3n2)cc1)C(=O)O` (centres undefined) [Quizalofop]: the collision cross section in data set [1] (setting [4]) was 192.68 Å². Also, the “reversed-phase LC retention time” value in data set [2] (setting [4]) came to 13.5 min.
Consider `CCCOc1nn(C(=O)NS(=O)(=O)c2ccccc2C(=O)OC)c(=O)n1C` [Propoxycarbazone], for which the collision cross section came to 199.32 Å² in data set [1] (setting [3]) and 193.45 Å² in data set [1] (setting [4]). The “reversed-phase LC retention time” value in data set [2] (setting [3]) came out at 11.7 min; in data set [2] (setting [4]) it was 9.86 min.
`CC12CCC(=O)C=C1CCC1C2CCC2(C)C(C(=O)CO)CCC12` (centres undefined) [21-Hydroxyprogesterone]: the collision cross section in data set [1] (setting [3]) is 183.52 Å². For the same compound, the “reversed-phase LC retention time” value in data set [2] (setting [3]) worked out at 14.5 min.
In data set [1] (setting [4]), `Oc1cccc2ccccc12` [1-Naphthol] registered a collision cross section of 124.62 Å². In addition, the “reversed-phase LC retention time” value in data set [2] (setting [4]) was determined as 14.3 min.
In turn, `NCC1(CC(=O)O)CCCCC1` [Gabapentin] had a collision cross section in data set [1] (setting [3]) of 139.22 Å². In addition, in data set [2] (setting [3]), the “reversed-phase LC retention time” value was 7.2 min.
Regarding `O=S(=O)(O)c1nc2ccccc2s1` [2-Benzothiazolesulfonic acid], the collision cross section in data set [1] (setting [3]) is 141.34 Å²; in data set [1] (setting [4]), 139.34 Å². Moreover, the “reversed-phase LC retention time” value came to 7.62 min in data set [2] (setting [3]) and 7.26 min in data set [2] (setting [4]).
The compound `CNC1(c2ccccc2Cl)CCCCC1=O` (centres undefined) [Ketamine] registered a collision cross section in data set [1] (setting [3]) of 149.17 Å². Further, in data set [2] (setting [3]), the “reversed-phase LC retention time” value turned out to be 8.79 min.
`N#Cc1cc(Br)c(O)c(Br)c1` [3,5-Dibromo-4-hydroxybenzonitrile]: the collision cross section in data set [1] (setting [4]) was 129.33 Å². Besides, the “reversed-phase LC retention time” value in data set [2] (setting [4]) worked out at 8.01 min.
For the compound `CCNc1ccc2c(C)cc(=O)oc2c1` [7-(Ethylamino)-4-methylcoumarin], the collision cross section in data set [1] (setting [3]) turned out to be 142.36 Å². For the same compound, the “reversed-phase LC retention time” value in data set [2] (setting [3]) was 12.2 min.
On the same counts, the results for `CCC1OC(=O)C(C)C(OC2CC(C)(OC)C(O)C(C)O2)C(C)C(OC2OC(C)CC(N(C)C)C2O)C(C)(OC)CC(C)C(=O)C(C)C(O)C1(C)O` (centres undefined) [Clarithromycin] are 267.43 Å² and 13.9 min.
Turning to `Cc1cc(=O)[nH]c(C(C)C)n1` [2-Isopropyl-6-methyl-pyrimidin-4-ol], the collision cross section in data set [1] (setting [3]) is 131.58 Å². Moreover, the “reversed-phase LC retention time” value in data set [2] (setting [3]) is 7.51 min.
